≈ marks a conversion by molar mass, not a printed value.
Experiment: Paclitaxel plasma solubility (excess drug equilibrated in rodent plasma, HPLC)
Assay type: physicochemical
Conditions: 37°C, 24 h equilibration
From the text: where dC/dt is the dissolution rate, D is the solute diffusion coefficient, V is the volume of the dissolution medium, hd is the diffusion boundary thickness, S is the surface area of the solute, Cs is the saturation solubility of the solute, and Ct(t) is the bulk solute concentration. The stability of the crystalline nanosuspension was monitored for a period of 3 weeks for particle size, PXRD, and chemical stability (by HPLC). […] Excess drug was then removed by centrifugation which was followed by protein precipitation, and the concentration was measured by HPLC with an external standard.

solubility at 24 h: 40 µg/mL (≈ 46.8 µM)
SMILES: CC(=O)O[C@H]1C(=O)[C@@]2(C)[C@H]([C@H](OC(=O)c3ccccc3)[C@]3(O)C[C@H](OC(=O)[C@H](O)[C@@H](NC(=O)c4ccccc4)c4ccccc4)C(C)=C1C3(C)C)[C@]1(OC(C)=O)CO[C@@H]1C[C@@H]2O [paclitaxel]
